Results from patent US7741520B2, “Sulfonanilide analogs as selective aromatase modulators (SAMs)” (The Ohio State University Research Foundation, priority 2006, dated 2010).

Assays:
[1] = tested on: aromatase activity in SK-BR-3 breast cancer cells; experiment: Aromatase tritiated water-release assay in SK-BR-3 cell lines (first compound set); type: cell-based, human; conditions: SK-BR-3 cells, 24 h treatment; five concentrations, each in triplicate; read-out: IC50 (μM), suppression of aromatase activity in SK-BR-3 breast cancer cells
Description: Aromatase Tritiated Water-Release Assay in SK-BR-3 Cell Lines. SK-BR-3 cells were obtained from ATCC (Rockville, Md.). Cell cultures were maintained in phenol red-free custom media (MEM, Earle's salts, 1.5× amino acids, 2× nonessential amino acids, L-glutamine, 1.5× vitamins, Gibco BRL) supplemented with 10% fetal bovine serum (FBS), 2 mM L-glutamine, and 20 mg/L gentamycin. Measurement of aromatase enzyme activity was based on the tritium water release assay. 24 Cells in 100 mm Petri dish were treated with 0.1% DMSO (control), and inhibitors at the indicated concentrations. After 24 h, the media was changed and the cells were incubated with 100 nM [1â-3H]-androst-4-ene-3,17-dione ([…]) for 3 h. Subsequently, the reaction mixture was removed, and proteins were precipitated using 10% trichloroacetic acid at 42° C. for 20 min. After a brief centrifugation, the media was extracted three times with an equal amount of chloroform to extract unused substrate and further dextran-treated charcoal. After centrifugation, a 250-μL aliquot containing the product was counted in 5 mL of liquid scintillation mixture. Results were corrected for blanks and for the cell contents of culture flasks, and results were expressed as picomoles of 3H2O formed per hour incubation time per million live cells (pmol/h/10^6 cells). To determine the amount of cells in each flask, the cells were trypsinized and analyzed using the diphenylamine DNA assay adapted to a 96-well plate. (Natarajan N.; Shambaugh, G. E., 3rd; Elseth K. M.; Haines G. K.; Radosevich J. A. Adaptation of the diphenylamine (DPA) assay to a 96-well plate tissue culture format and comparison with the MTT assay. Biotechniques 1994, 17, 166-171; incorporated herein by reference). IC50 sigmoidal dose-response data were analyzed with Microsoft Excel and the Graphpad Prism (Version 3.0) program.

[2] = tested on: CYP19 mRNA expression in SK-BR-3 cells; experiment: CYP19 mRNA expression by real-time RT-PCR in SK-BR-3 cells; type: cell-based, human; conditions: 5 μM, 24 h (FIG. 14)
Description: (§1) RNA Extraction. Total RNA was isolated using the TRIzol reagent according to the manufacturer's protocol. Total RNA pellets were dissolved in DNase- and RNase-free water and quantitated using a spectrophotometer. The quality of RNA samples was determined by electrophoresis through agarose gels and staining with ethidium bromide; the 18S and 28S rRNA bands were visualized under ultraviolet light.
(§2) cDNA Synthesis. Isolated total RNA (2 μg) was treated with DNase I Amplification grade, according to the recommended protocol to eliminate any DNA before reverse transcription. Treated total RNA was denatured at 65° C. for 5 min in the presence of 2.5 ng/μL random hexamers and 0.5 mM dNTP mix. The samples were snap-cooled on ice and centrifuged briefly. Complementary DNA (cDNA) was synthesized using Superscript II reverse transcriptase according to the recommended protocol. Briefly, the reactions were conducted in the presence of 1× First-Strand Buffer and 20 mM DTT at 42° C. for 50 min and consequently inactivated at 70° C. for 15 min. The cDNA generated was used as a template in realtime PCR reactions.
Real-Time PCR. Real-time PCR was performed using the Opticon 2 system from MJ Research (Waltham, Mass.). For the CYP19 total gene the PCR reaction mixture consisted of Taqman Universal PCR Master Mix (Applied Biosystems), 600 nM of CYP19 primer (sense: 5′-TGTCTCTTTGTTCTTCATGCTATTTCTC-3′ (SEQ ID NO: 1); antisense: 5′-TCACCAATAACAGTCTGGATTTCC-3′) (SEQ ID NO: 2); 250 nM Taqman probe (6FAM 5′-TGCAAAGCACCCTAATGTTGAAGAGGCAAT-3′TAMRA) (SEQ ID NO: 3) (Invitrogen), 18S rRNA (Applied Biosystems, Foster City, Calif.), and 2.0 μL of each RT sample in a final volume of 20 μL. The Taqman probe was designed to anneal to a specific sequence of the aromatase gene between the forward and the reverse primers. Cycling conditions were 50° C. for 2 mm and 95° C. for 10 mm, followed by 50 cycles at 95° C. for 15 s and 60° C. for 1 mm.
as §1, with “extraction.” for “Extraction.”, “DNase,” for “DNase- and”
as §2, with “synthesis.” for “Synthesis.”, “real-time” for “realtime”
Real-time PCR. Real-time PCR was performed using the Opticon™ 2 system from MJ Research (Waltham, Mass.). For the CYP19 total gene the PCR reaction mixture consisted of Taqman® Universal PCR Master Mix (Applied Biosystems), 600 nM of CYP19 primer (sense: 5′-TGTCTCTTTGTTCTTCATGCTATTTCTC-3′ (SEQ ID NO: 1); antisense: 5′-TCACCAATAACAGTCTGGATTTCC-3′) (SEQ ID NO: 2); 250 nM Taqman probe (6FAM 5′-TGCAAAGCACCCTAATGTTGAAGAGGCAAT-3′TAMRA) (SEQ ID NO: 3) (Invitrogen), and 2.0 μL of each cDNA sample in a final volume of 20 μL. […]

[3] = biological target: T1, aromatase activity in JAR choriocarcinoma placental cells (Homo sapiens, UniProt P11511); experiment: Tritiated water-release assay in JAR cells; type: cell-based; conditions: 24 h, 15 μM (FIG. 11), read-out: decrease of aromatase activity in JAR cells
T1 construct: JAR choriocarcinoma placental cells (which produce aromatase expression from promoter I.1 mediated by protein kinase C); host or cells: JAR
T1 sequence (P11511 1-503): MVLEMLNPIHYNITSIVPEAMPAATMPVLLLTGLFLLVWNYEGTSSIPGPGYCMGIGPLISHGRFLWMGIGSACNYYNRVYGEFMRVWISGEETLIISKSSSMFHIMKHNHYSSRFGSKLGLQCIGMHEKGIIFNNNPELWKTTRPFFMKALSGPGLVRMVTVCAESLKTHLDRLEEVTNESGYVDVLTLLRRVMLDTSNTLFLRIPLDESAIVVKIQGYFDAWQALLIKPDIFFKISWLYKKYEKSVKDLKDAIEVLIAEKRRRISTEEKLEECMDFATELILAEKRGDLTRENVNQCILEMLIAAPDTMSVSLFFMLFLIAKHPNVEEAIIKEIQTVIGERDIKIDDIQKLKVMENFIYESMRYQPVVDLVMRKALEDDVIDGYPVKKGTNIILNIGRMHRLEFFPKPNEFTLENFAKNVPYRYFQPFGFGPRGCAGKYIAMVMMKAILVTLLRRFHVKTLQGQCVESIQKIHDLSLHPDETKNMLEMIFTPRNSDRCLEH
Description: Cell Culture. AR and SK-BR-3 cells were obtained from ATCC (Rockville, Md.). SK-BR-3 cells were maintained in phenol red-free custom media (MEM, Earle's salts, 1.5× amino acids, 2× non-essential amino acids, L-glutamine, 1.5× vitamins, Gibco BRL) supplemented with 10% fetal bovine serum (FBS), 2 mM L-glutamine and 20 mg/L gentamycin. JAR cells were maintained in RPMI 1640 medium with 2 mM L-glutamine adjusted to contain 1.5 g/L sodium bicarbonate, 4.5 g/L glucose, 10 mM HEPES, and 1.0 mM sodium pyruvate, 90%; FBS, 10%. Fetal bovine serum was heat inactivated for 30 min in a 56° C. water bath before use. Cell cultures were grown at 37° C., in a humidified atmosphere of 5% CO2 in a Hereaus CO2 incubator. For all experiments, cells were plated in 6 well plates and grown to subconfluency. Before treatment, the media was changed to a defined one containing DMEM/F12 media (Sigma) with 1.0 mg/mL human albumin (OSU Hospital Pharmacy), 5.0 mg/L human transferin and 5.0 mg/L bovine insulin.
Tritiated water-release assay in JAR and SK-BR-3 cell lines. Measurement of aromatase enzyme activity was based on the tritium water release assay. Cells in six well plates were treated with 0.1% DMSO (control), and inhibitors at the indicated concentrations. After 24 hours, the cells were incubated 3 hours (SK-BR-3 cells) or 1 hour (JAR cells) with fresh media along with 100 nM [1β-^3H]-androst-4-ene-3,17-dione (1 μCi). Subsequently, the reaction mixture was removed, and proteins were precipitated using 10% trichloroacetic acid at 42° C. for 20 min. After a brief centrifugation, the media was extracted three times with an equal amount of chloroform to remove remaining substrate and further treated with dextran-treated charcoal. After centrifugation, a 250-μl aliquot containing the product was counted in 5 ml of liquid scintillation mixture. Results were corrected for blanks and for the cell contents of culture flasks, and results were expressed as picomoles of ^3H2O formed per hour incubation time per million live cells (pmol/h/10^6 cells). To determine the amount of cells in each flask, the cells were lysed and analyzed using the diphenylamine DNA assay adapted to a 96-well plate. IC50 sigmoidal dose-response data were analyzed with Microsoft Excel and the Graphpad Prism (Version 3.0) program.
Diphenylamine DNA Assay To determine the amount of viable cells in each flask, the cells were lysed with 0.5N NaOH aqueous solution and analyzed using the diphenylamine DNA assay adapted to a 96-well plate. DNA standards (0-30 μg) were prepared using double-stranded DNA reconstituted in PBS and added in triplicates directly to the wells. A uniform cell suspension was prepared from the 6 well plate in 300 μl 0.5N NaOH aqueous solution, and 60 μl of the unknown samples were added in triplicates to separate wells. A solution of 0.16% acetaldehyde in water was prepared and mixed at a 1:5 ratio with perchloric acid (20% vol/vol). This solution (60 μl) was added to each well along with 100 μl of a 4% diphenylamine solution in glacial acetic acid. The plates were incubated at 37° C. for 24 hours. After centrifugation, 100 μl supernatant of each well was transferred to a new 96 well plate, and the OD595 was measured using a microplater reader. The DNA concentration was determined by extrapolation to the standard curve and the amount of cells/well was calculated using the equation: 1 cell≈7 pg DNA.

Question: What does the source list for `CC(C)Oc1cc([N+](=O)[O-])ccc1NS(C)(=O)=O` [Compound 10, N-(2-Isopropyloxy-4-nitrophenyl)methanesulfonamide]?
Answer: melting point: 128 to 131 °C; IC50 [1]: 5.87 µM

Question: Which melting point does the source give for `CCCCCCCCCOc1cc([N+](=O)[O-])ccc1N(C)S(C)(=O)=O` [Compound 23, N-Methyl-N-(2-nonyloxy-4-nitrophenyl)methanesulfonamide] here?
Answer: Its melting point is 83 to 84 °C.

Question: What about the IC50 [1] of the same compound?
Answer: The IC50 was 3.96 µM.

Question: Which results are given for `CCCOc1cc([N+](=O)[O-])ccc1NS(C)(=O)=O` [Compound 9, N-(2-Propyloxy-4-nitrophenyl)methanesulfonamide]?
Answer: melting point: 117 to 119 °C; IC50 [1]: 2.51 µM

Question: With `CCCCCCOc1cc([N+](=O)[O-])ccc1NS(C)(=O)=O` [Compound 15, N-(2-Hexyloxy-4-nitrophenyl)methanesulfonamide] as the compound, how does the melting point read?
Answer: The melting point was 74 to 76 °C.

Question: And the IC50 [1]?
Answer: The IC50 was 2.67 µM.

Question: What does the source list for `COc1cc([N+](=O)[O-])ccc1NS(C)(=O)=O` [Compound 16, N-(2-Methoxy-4-nitrophenyl)methanesulfonamide]?
Answer: melting point: 128 to 130 °C; IC50 [1]: > 25 µM

Question: For `CCCOc1cc([N+](=O)[O-])ccc1N(C)S(C)(=O)=O` [Compound 18, N-Methyl-N-(2-propyloxy-4-nitrophenyl)methanesulfonamide], which melting point is on record?
Answer: The melting point was 66 to 69 °C.

Question: And the IC50 [1]?
Answer: The IC50 was 0.76 µM.

Question: With `CS(=O)(=O)Nc1ccc([N+](=O)[O-])cc1OCCc1ccccc1` [Compound 37b, N-(2-phenylethoxy 4-nitrophenyl) methanesulfonamide] as the compound, how does the CYP19 gene expression [2] read?
Answer: The CYP19 gene expression was “not affect the CYP19 gene expression”.

Question: For `CC(C)Oc1cc([N+](=O)[O-])ccc1N(C)S(C)(=O)=O` [Compound 19, N-Methyl-N-(2-isopropyloxy-4-nitrophenyl)methanesulfonamide], which melting point is on record?
Answer: Its melting point is 99 to 100 °C.

Question: What about the IC50 [1] of the same compound?
Answer: The IC50 was 2.81 µM.

Question: With `CCCCCCCCCOc1cc([N+](=O)[O-])ccc1NS(C)(=O)=O` [Compound 14, N-(2-Nonyloxy-4-nitrophenyl)methanesulfonamide] as the compound, how does the melting point read?
Answer: The melting point was 70 to 71 °C.

Question: What about the IC50 [1] of the same compound?
Answer: The IC50 was 0.91 µM.

Question: Which melting point does the source give for `CN(c1ccc([N+](=O)[O-])cc1OCc1cccc2ccccc12)S(C)(=O)=O` [Compound 38c, N-methyl-N-[2-(α-naphthylmethoxy) 4-nitrophenyl]methanesulfonamide] here?
Answer: The melting point was 163 to 165 °C.

Question: And the inhibition at 15 µM [3]?
Answer: Its inhibition at 15 µM is under 50%.

Question: For `COc1cc([N+](=O)[O-])ccc1N(C)S(C)(=O)=O` [Compound 25, N-Methyl-N-(2-methoxy-4-nitrophenyl)methanesulfonamide], which melting point is on record?
Answer: The melting point was 125 to 126 °C.

Question: And the IC50 [1]?
Answer: The IC50 was over 25 µM.

Question: For `CCCCCCOc1cc([N+](=O)[O-])ccc1N(C)S(C)(=O)=O` [Compound 24, N-Methyl-N-(2-hexyloxy-4-nitrophenyl)methanesulfonamide], which melting point is on record?
Answer: Its melting point is 44 to 46 °C.

Question: And the IC50 [1]?
Answer: Its IC50 is 4.49 µM.
